The results in this text go back to patent publication US20240124456A1, “AZA-ERGOLINE DERIVATIVE AND PREPARATION METHOD THEREFOR AND APPLICATION THEREOF” (SHANGHAITECH UNIVERSITY, priority 2021, published 2024).

For experiment [1], the target named is T1, dopamine D2 receptors (Homo sapiens (Human), UniProt P14416). Put plainly: Radioligand competition binding, affinity for dopamine D2 receptors ([3H]-Methylspiperone). The settings on record: [3H]-Methylspiperone (0.3-0.5 nM), HEK-293T membranes; for Ki: I-1 to 19 n=3, I-20 to 27 single determination. How it is done: A 10 cm diameter dish was used for transfection with 10 ng of the dopamine D2 receptors and 40 μL of PEI. After 48 hours, the 10 cm dish was taken out from the cell culture room and the cultured cells had expressed the dopamine D2 receptors. A vacuum pump was used to suck off the culture medium, 3 mL of lysis buffer (50 mM Tris hydrochloric acid buffer, pH 7.4) was added to each well, and the cells were placed in a 4° C. freezer for 10 minutes. After the cells were detached, the cells were transferred to a 15 mL centrifuge tube and centrifuged at 1500 rpm for 5 minutes at 4° C., and the supernatant was discarded. The cell pellet was transferred to a tissue homogenizer, and 3 mL of lysis buffer was added and fully ground until the cells were broken. Then, cell suspension was equally divided into several EP tubes, centrifuged at 4° C. and 12000 rpm for 5 min, and the supernatant was discarded. The precipitate was the cell membrane component containing the dopamine D2 receptors and stored at −80° C.
First, a standard binding buffer (50 mM HEPES, 50 mM NaCl, 5 mM MgCl2, 0.5 mM EDTA, pH 7.4) was added to the cell membrane component containing the dopamine D2 receptors, and the cell membrane was disrupted and resuspended with an electric tissue homogenizer. 30 μL of membrane protein suspension was added to each well of a 96-well plate. Then, 30 μL of different drugs were added to the 96-well plate from left to right to ensure that the final drug concentrations were 10^−5 M, 10^−6 M, 10^−7 M, 10^−8 M, 10^−9 M and 0 M, with two replicates per treatment. Next, 30 μL [^3H]-N-Methylspiperone was added to each well of the 96-well plate, and the plate was incubated for 2 hours at room temperature in the dark. The unbound isotopes were removed by Whatman GF/C filter membrane and vacuum pump, and the isotopes bound to the receptors were detected by MicroBeta isotope liquid scintillation counter.
The affinity of the compounds of the present invention for the dopamine D2 receptors was determined by the method of radioligand competition experiment. In the first step, a cell membrane component containing specific dopamine D2 receptors was prepared. A10 cm dish was used for transfection with 10 ng of the dopamine D2 receptors and 40 μL of PEI. After 48 hours, the 10 cm dish was taken out from the cell culture room and the cultured cells had expressed the dopamine D2 receptors. A vacuum pump was used to suck off the culture medium, 3 mL of lysis buffer was added to each well, and the cells were placed in a 4° C. freezer for 10 minutes. After the cells were detached, the cells were transferred to a 15 mL centrifuge tube and centrifuged at 1500 rpm for 5 minutes at 4° C., and the supernatant was discarded. The cell pellet was transferred to a tissue homogenizer, and 3 mL of lysis buffer was added and fully ground until the cells were broken. Then, cell suspension was equally divided into several EP tubes, centrifuged at 4° C. and 12000 rpm for 5 min, and the supernatant was discarded. The precipitate was the cell membrane component containing the dopamine D2 receptors. […] First, a standard binding buffer was added to the cell membrane component containing the dopamine D2 receptors, and the cell membrane was disrupted and resuspended with an electric tissue homogenizer. 30 μL of membrane protein suspension was added to each well of a 96-well plate. Then, 30 μL of different drugs were added to the 96-well plate from left to right to ensure that the final drug concentrations were 10^−5 M, 10^−6 M, 10^−7 M, 10^−8 M, 10^−9 M and 0 M, with two replicates per treatment. Next, 30 μL [^3H]-Methylspiperone was added to each well of the 96-well plate. The plate was incubated for 2 hours at room temperature in the dark. Detection. The machine reading value reflected the amount of [^3H]-Methylspiperone bound on the membrane, and after further data processing, the affinity Ki value of different compounds for dopamine D2 receptors was obtained.
For orientation: Loss of bound radioactivity is the signal in a displacement assay; it reports binding, not function.

Experiment [2] addresses T1, dopamine D2 receptors. Put plainly: G protein Gαi1-γ9 dissociation BRET, dopamine D2 receptor functional activity. The format is cell-based. To be noted: for Emax: read-out: Gai1 BRET Emax % ± SEM. How it is done: To examine downstream G protein signaling mediated by dopamine D2 receptors, 6 cm dish was used for transfection with 1μg of dopamine D2 receptors, 1μg of Gαi1 fused to seaweed luciferase (Gαi1-Rluc), 1 μg of Gβ3, 1 μg of Gγ9 fused to green fluorescent protein (Gγ9-GFP) and 16 μL of transfection reagent PEI. […] On the third day, the drugs were added for test.
(§1) To examine downstream G-protein signaling pathway mediated by dopamine D2 receptors, on the first day, 6 cm dish was used for transfection with 1μg of dopamine D2 receptors, 1μg of Gαi1 containing C-terminal seaweed luciferase (GGαi1-Rluc), 1 μg of […], 1 μg of Gγ9 containing C-terminal green fluorescent protein (Gγ9-GFP) and 16 μL of PEI. At the same time, in order to examine the downstream f3-arrestin2 signaling pathway mediated by dopamine D2 receptors, on the first day, 6 cm dish was used for transfection with 500 μg of dopamine D2 receptors containing C-terminal seaweed luciferase (D2-Rluc), 500 μg of G protein-coupled receptor kinase 2 (GRK2), 2500 μg of […] containing N-terminal green fluorescent protein (GFP2-ARRB2) and 14 μL of PEI. The next day, the overgrown cells were digested and plated a 96-well plate at the amount of cells contained in a 6 cm culture dish with overgrown cells, and 100 μL of culture medium was added to each well. On the third day, the drugs were added for test. The 96-well plate was taken out from the cell culture room to remove the culture medium, 40 μL of the substrate coelenterazine 400a (final concentration of 5 μM) was added to each well, and then 20 μL of different drugs were added in turn from left to right to ensure that the final concentration of the drugs decreased gradually from bottom to top, and each treatment was repeated twice. Finally, the prepared samples were loaded on machine for test. The machine reading value reflected the intracellular β-arrestin2 on the membrane and the dissociation of G protein trimer. The former indicated the degree of activation of the β-arrestin2 signaling pathway downstream of the dopamine D2 receptors, and the latter indicated the degree of activation of the G protein signaling pathway downstream of the dopamine D2 receptors.

Experiment [3] deals with T1, dopamine D2 receptors. In words: β-arrestin2 recruitment BRET, dopamine D2 receptor functional activity. The format is cell-based. The settings on record: for Emax: read-out: β-arrestin2 BRET Emax % ± SEM. As to the method:
To examine the downstream f3-arrestin2 signaling pathway mediated by dopamine D2 receptors, 6 cm dish was used for transfection with 500 […] of dopamine D2 receptors fused to seaweed luciferase (D2-Rluc), 500 μg of G protein-coupled receptor kinase 2 (GRK2), 2500 μg of β-arrestin2 fused to green fluorescent protein (GFP2-ARRB2) and 14 μL of transfection reagent PEI. The next day, the overgrown cells were digested and plated a 96-well plate at the amount of cells contained in a 6 cm culture dish with overgrown cells, and 100 μL of culture medium was added to each well. On the third day, the drugs were added for test.
as §1

[4] abbreviates: HEK-293T, I-1 to 19 n=3, I-20 to 27 single determination, read-out: Gai1 BRET EC50.
[5] abbreviates: n=3, read-out: Gai1 BRET pEC50 ± SEM (converted).
Setting [6] is: relative to the endogenous ligand dopamine.
[7] abbreviates: n=3, read-out: β-arrestin2 BRET pEC50 ± SEM (converted).
Where [8] appears, read: HEK-293T, I-1 to 19 n=3, I-20 to 27 single determination, read-out: β-arrestin2 BRET EC50.
Where [9] appears, read: antagonistic activity, single determination, read-out: Gai1 BRET EC50 (antagonistic activity).

T1 sequence (P14416 whole entry): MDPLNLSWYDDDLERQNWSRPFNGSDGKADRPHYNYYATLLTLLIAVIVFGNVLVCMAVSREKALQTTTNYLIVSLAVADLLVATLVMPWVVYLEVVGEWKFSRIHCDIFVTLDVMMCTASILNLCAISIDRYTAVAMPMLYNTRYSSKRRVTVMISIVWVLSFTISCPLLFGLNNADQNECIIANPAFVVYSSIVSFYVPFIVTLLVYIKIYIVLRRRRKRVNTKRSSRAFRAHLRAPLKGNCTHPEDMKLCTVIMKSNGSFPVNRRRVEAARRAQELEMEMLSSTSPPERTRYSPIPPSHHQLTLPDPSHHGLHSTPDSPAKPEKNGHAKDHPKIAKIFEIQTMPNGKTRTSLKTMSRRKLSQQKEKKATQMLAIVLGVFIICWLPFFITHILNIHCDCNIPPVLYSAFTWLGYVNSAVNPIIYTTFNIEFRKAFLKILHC

In experiment [1], `O=c1ccc2ccc(OCCCCN3CCN4c5cccc6[nH]cc(c56)CC4C3)cc2[nH]1` (single isomer, unassigned; (+)) [(+)-I-2] registered a Ki of 0.00887 µM. Besides, the EC50 in experiment [2] (setting [4]) is 0.001 µM; in experiment [2] (setting [5]), 0.000851 µM; in experiment [3] (setting [7]), 0.0158 µM. Further, the results for the Emax in experiment [2] (setting [6]) and in experiment [3] (setting [6]) were 95% and 89%, respectively.
Compound `O=c1ccc2ccc(OCCCCN3CCN4c5cccc6[nH]cc(c56)CC4C3)cc2[nH]1` (single isomer, unassigned; (-)) [(−)-I-2] yielded a Ki in experiment [1] of 0.00175 µM. Further, the EC50 in experiment [2] (setting [4]) is 0.003 µM; in experiment [2] (setting [5]), 0.00275 µM; in experiment [3] (setting [7]) it was 0.0182 µM. Also, the “Gai1 BRET Emax % ± SEM” value in experiment [2] (setting [6]) stood at 91 ± 3%. Also, in experiment [3] (setting [6]), the “β-arrestin2 BRET Emax % ± SEM” value amounted to 76 ± 2%.
Take `c1cc2c3c(c[nH]c3c1)CC1CN(CCCCOc3ccc4scnc4c3)CCN21` (stereo not drawn) [Compound I-3]: the figures for the EC50 in experiment [2] (setting [4]) and in experiment [3] (setting [8]) were 0.0437 µM and 0.0646 µM, respectively. The Emax in experiment [2] (setting [6]) came to 92%; in experiment [3] (setting [6]) it was 93%.
`Cc1nc2cc(OCCCCN3CCN4c5cccc6[nH]cc(c56)CC4C3)ccc2o1` (stereo not drawn) [Compound I-4, 5-(4-(4,6,6a,7,9,10-hexahydro-8H-pyrazino[1,2-a]pyrrolo[4,3,2-de]quinolin-8-yl)butoxy)-2-methylbenzo[d]oxazole] registered a Ki in experiment [1] of 0.0303 µM. Moreover, in experiment [1] (n=3), the “Affinity pKi ± SEM” value is reported as “(7.52 ± 0.08)”. The EC50 came to 0.00668 µM in experiment [2] (setting [4]) and 0.071 µM in experiment [3] (setting [8]). In addition, the Emax in experiment [2] (setting [6]) is 80%; in experiment [3] (setting [6]), 66%.
On to `c1cc2c3c(c[nH]c3c1)CC1CN(CCCOc3ccc4c(c3)OCO4)CCN21` (stereo not drawn) [Compound I-9, 8-(3-(benzo[d][1,3]dioxo1-5-yloxy)propyl)-6,6a,7,8,9,10-hexahydro-4H-pyrazino[1,2-a]pyrrolo[4,3,2-de]quinoline], for which the EC50 in experiment [2] (setting [4]) was 0.166 µM; in experiment [3] (setting [8]) it was 0.148 µM. Besides, the Emax in experiment [2] (setting [6]) came to 92%; in experiment [3] (setting [6]), 96%.
For `O=C(N[C@H]1CC[C@H](CCN2CCN3c4cccc5[nH]cc(c45)CC3C2)CC1)N1CCCC1` (stereo partly drawn) [Compound I-11, N-(4-(2-(4,6,6a,7,9,10-hexahydro-8H-pyrazino[1,2-a]pyrrolo[4,3,2-de]quinolin-8-yl)ethyl)trans-cyclohexyl)tetrahydropyrrole-l-carboxamide], in that order: 0.00933 µM, 0.0112 µM, 91% and 87%.
For `CN(C)C(=O)N[C@H]1CC[C@H](CN2CCN3c4cccc5[nH]cc(c45)CC3C2)CC1` (stereo partly drawn) [Compound I-16], in that order: 0.0589 µM, 0.0407 µM, 84% and 90%.
For `O=C1CCc2ccc(OC/C=C/CN3CCN4c5cccc6[nH]cc(c56)CC4C3)cc2N1` (stereo not drawn) [Compound I-20], in that order: 0.0102 µM, 0.0982 µM, 74% and 88%.
Regarding `O=c1ccc2ccc(OC/C=C/CN3CCN4c5cccc6[nH]cc(c56)CC4C3)cc2[nH]1` (stereo not drawn) [Compound I-21], the results for the EC50 in experiment [2] (setting [4]) and in experiment [3] (setting [8]) were 0.00771 µM and 0.0619 µM, respectively. The values for the Emax in experiment [2] (setting [6]) and in experiment [3] (setting [6]) were 77% and 90%, respectively.
For `O=C(CCCN1CCN2c3cccc4[nH]cc(c34)CC2C1)c1ccc(F)cc1` (stereo not drawn) [Compound I-24, 1-(4-fluorobenzene)-4-(4,6,6a,7,9,10-hexahydro-8H-pyrazino[1,2-a]pyrrolo[4,3,2-de]quinolin-8-yl)-1-butanone], in that order: 0.0114 µM, 0.0104 µM, 38% and 26%.
For `OC(CCCN1CCN2c3cccc4[nH]cc(c34)CC2C1)c1ccc(F)cc1` (stereo not drawn) [Compound I-25, 1-(4-fluorobenzene)-4-(4,6,6a,7,9,10-hexahydro-8H-pyrazino[1,2-a]pyrrolo[4,3,2-de]quinolin-8-yl)-1-butanol] the same measures were 0.00748 µM, 0.0096 µM, 29% and 30%.
`Cn1cc2c3c(cccc31)N1CCN(CCCC(=O)c3ccc(F)cc3)CC1C2` (stereo not drawn) [Compound I-26, 1-(4-fluorobenzene)-4-(4-methyl-4,6,6a,7,9,10-hexahydro-8H-pyrazino[1,2-a]pyrrolo[4,3,2-de]quinolin-8-yl)-1-butanone]: the EC50 in experiment [2] (setting [9]) turned out to be 7.62 µM. Further, the “β-arrestin2 BRET EC50” value in experiment [3] (HEK-293T, I-1 to 19 n=3, I-20 to 27 single determination) is “Inactive”.
As for `Cn1cc2c3c(cccc31)N1CCN(CCCC(O)c3ccc(F)cc3)CC1C2` (stereo not drawn) [Compound I-27, 1-(4-fluorobenzene)-4-(4-methyl-4,6,6a,7,9,10-hexahydro-8H-pyrazino[1,2-a]pyrrolo[4,3,2-de]quinolin-8-yl)-1-butanol], the EC50 in experiment [2] (setting [9]) worked out at 1.2 µM; in experiment [3] (antagonistic activity, single determination, read-out: β-arrestin2 BRET EC50 (antagonistic activity)) it was 1.54 µM.

A word on the Ki: it is the dissociation constant of the complex between target and ligand, obtained from inhibition or displacement. Low readings indicate a stronger hold on the target, high ones a looser hold on the target. Broadly, the Emax is the greatest response seen or fitted, relative to the assay's reference.
